Results from the supplement of paper PMC11208160.

test: recombinant barcode read abundance after kanamycin selection (control-corrected) (log10(CPM+1)); higher = more efficient recombination; sequences stand for … in AGTGCAGAGAAAATCGGCCAGTTTTCTCTGCCTGCAGTCCGCATGCCGT…ATTTATGCAGCGGACTGCCTTTCTCCCAAAGTGATAAACCGGACAGTATCATGGACCGGTTTTCCCGGTAATCCGTATTTGCAAGGTTGGTTTCACT; site = the 11-nt target
Method in brief: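 In E. coli, a pooled library matched targets to IS621 bridge RNA target-binding loops and was introduced alongside a donor plasmid. Cells went onto chloramphenicol/ampicillin/kanamycin with 0.1 mM IPTG or onto chloramphenicol/ampicillin LB agar as control, in duplicate. Recombination efficiency, from recombinant-junction barcodes as counts per million, is averaged and control-corrected. It is reported as log10(CPM+1).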

| Sequence | recombinant barcode read abundance (log10) |
| --- | --- |
| TTATAAACTTGGGTTCTAACCTGTTGCCTGC [TTATAAACTAG_LTGcore_CT_RTGcore_GC] (site TTATAAACTAG) (LTG core: CT, RTG core: GC) | 0.178 |
| TTATAAACTTGGGTTCTAACCTGTTGCCTTG [TTATAAACTAG_LTGcore_CT_RTGcore_CA] (site TTATAAACTAG) (LTG core: CT, RTG core: CA) | 0.173 |
| TTATAAAGATGGGTTCTAACCTGTTGCCTTC [TTATAAACTAG_LTGcore_GA_RTGcore_GA] (site TTATAAACTAG) (LTG core: GA, RTG core: GA) | 0.0936 |
| TTATAAAGGTGGGTTCTAACCTGTTGCCTCC [TTATAAACTAG_LTGcore_GG_RTGcore_GG] (site TTATAAACTAG) (LTG core: GG, RTG core: GG) | 0.154 |
| TTATAAATCTGGGTTCTAACCTGTTGCCTGA [TTATAAACTAG_LTGcore_TC_RTGcore_TC] (site TTATAAACTAG) (LTG core: TC, RTG core: TC) | 0.244 |
